From article PMC7932537, “Quantitative profiling of protease specificity” (PLoS Computational Biology, 2021)

How the values were obtained:
MMP-2 = assay: Substrate phage display with NGS: relative probability (RP) of P3-P1' tetramer clusters; format: biochemical, human; conditions: for relative probability (RP) of matching tetramer: P3-P1' tetramer matching the MS detected MMP2 cleavage sequence, RP_above_4.5; for avg_RP: MMP2 - no binning; for normalized RP - MMP2: normalized RP of matching tetramer; for MMP2 relative probability (RP): MMP2 tetramers from unique substrates, unrounded values
MMP-9 = assay: as above; format: biochemical, human; conditions: for normalized RP - MMP9: normalized RP of matching tetramer; for corresponding MMP9 relative probability (RP): MMP2 tetramers from unique substrates, RP of same tetramer for MMP9
[1] = MMP2, RP of matching P3-P1' tetramer, common set of MMP2-9 selectome, RP above KL threshold
[2] = RP of matching tetramer, common MMP2-9 selectome
[3] = MMP9, RP of matching P3-P1' tetramer, common set of MMP2-9 selectome
[4] = MMP9, RP of the P3-P1' tetramer matching the MS detected cleavage, RP above 4.7, substrate phage display with NGS
[5] = RP of matching tetramer, common MMP2-9 selectome, RP above KL threshold
[6] = RP of the P3-P1' tetramer, MMP2 substrate phage display/NGS, tetramers of physiologic MEROPS substrates common to MMP2 and MMP9
[7] = RP of the P3-P1' tetramer, MMP9 substrate phage display/NGS, tetramers of physiologic MEROPS substrates common to MMP2 and MMP9
[8] = RP of the P3-P1' tetramer cluster contained in the hexamer, 200 nM MMP-2, 2 h, 37°C, two rounds of selection
[9] = MMP9, RP of the P3-P1' tetramer contained in the hexamer substrate (substrate phage display, NGS)
[10] = RP of matching tetramer, unique part of MMP2 selectome, RP above KL threshold
[11] = RP of matching tetramer, unique part of MMP2 selectome
[12] = RP according to MMP2, P3-P1' tetramer of unique physiologic MMP2 substrates from MEROPS

Q: For AKNL, which “relative probability (RP) (acc.to MMP2)” value (MMP-2; [1]) is on record?
A: 16.7

Q: What about the “relative probability (RP) of matching tetramer” value (MMP-2) of the same substance?
A: 16.7

Q: What about the “relative probability (RP) (acc.to MMP2)” value (MMP-2; [2]) of the same substance?
A: 16.7

Q: What about the “relative probability (RP) (acc.to MMP9)” value (MMP-9; [3]) of the same substance?
A: 32.82

Q: What about the “relative probability (RP)” value (MMP-9; [4]) of the same substance?
A: 32.82

Q: And the “relative probability (RP) (acc.to MMP9)” value (MMP-9; [5])?
A: 32.82

Q: What does the source list for PKFL [P3-P1' tetramer cluster]?
A: avg_RP (MMP-2; average relative probability of the tetramer, redundant tetramers averaged out): 23.745; relative probability (RP) (MMP-9; tetramer projected onto MMP-9 cleavage sites determined by Prudova et al. (2010)): 42.75

Q: PQGF was tested. Which “relative probability (RP) (acc.to MMP2)” value (MMP-2; [6]) did it give?
A: 27.05

Q: And the “relative probability (RP) (acc.to MMP9)” value (MMP-9; [7])?
A: 37.1

Q: With GKPVSM as the substance, how does the “relative probability (RP)” value (MMP-2; [8]) read?
A: 30.0644

Q: What about the “relative probability (RP)” value (MMP-9; [9]) of the same substance?
A: 41.2029

Q: RMMREL was tested. Which “relative probability (RP)” value (MMP-2; [8]) did it give?
A: 19.1524

Q: What about the “relative probability (RP)” value (MMP-9; [9]) of the same substance?
A: 21.3182

Q: Which “relative probability (RP) (acc.to MMP2)” value (MMP-2; [6]) does the source give for AIHI here?
A: 4.71

Q: And the “relative probability (RP) (acc.to MMP9)” value (MMP-9; [7])?
A: 5.64

Q: How did the “relative probability (RP) of matching tetramer” value (MMP-2) turn out when PESW was run?
A: 4.73

Q: And the “relative probability (RP) (acc.to MMP2)” value (MMP-2; [10])?
A: 4.73

Q: And the “normalized RP - MMP2” value (MMP-2; unique part of MMP2 selectome)?
A: 0.1295

Q: What about the “relative probability (RP) (acc.to MMP9)” value (MMP-9; [11]) of the same substance?
A: 1.77

Q: What about the “normalized RP - MMP9” value (MMP-9; unique part of MMP2 selectome) of the same substance?
A: 0.03379

Q: For MNML, which “relative probability (RP) of matching tetramer” value (MMP-2) is on record?
A: 8.39

Q: What about the “relative probability (RP) (acc.to MMP2)” value (MMP-2; [10]) of the same substance?
A: 8.39

Q: What about the “normalized RP - MMP2” value (MMP-2; unique part of MMP2 selectome) of the same substance?
A: 0.2297

Q: What about the “relative probability (RP) (acc.to MMP9)” value (MMP-9; [11]) of the same substance?
A: 0.4

Q: What about the “normalized RP - MMP9” value (MMP-9; unique part of MMP2 selectome) of the same substance?
A: 0.007637

Q: How did the “relative probability (RP)” value (MMP-2; [8]) turn out when PVAIPM was run?
A: 32.4892

Q: And the “relative probability (RP)” value (MMP-9; [9])?
A: 44.9732

Q: Which “MMP2 relative probability (RP)” value (MMP-2) does the source give for LAHA here?
A: 10.8276

Q: And the “Relative probability (RP) rank” value (MMP-2; [12])?
A: 4607

Q: What about the “relative probability (RP)” value (MMP-2; [12]) of the same substance?
A: 10.83

Q: What about the “relative probability (RP)” value (MMP-2; tetramer annotation of MMP-2 cleavage sites in physiologic substrates from MEROPS) of the same substance?
A: 10.83

Q: And the “corresponding MMP9 relative probability (RP)” value (MMP-9)?
A: 0.5961

Q: Which results are given for QPLEIR?
A: relative probability (RP) (MMP-2; [8]): 19.9123; relative probability (RP) (MMP-9; [9]): 43.9826

Q: How did the “relative probability (RP)” value (MMP-2; [8]) turn out when TTPSPI was run?
A: 32.5241

Q: What about the “relative probability (RP)” value (MMP-9; [9]) of the same substance?
A: 43.889

Q: How did the “relative probability (RP) (acc.to MMP2)” value (MMP-2; [1]) turn out when PADF was run?
A: 20.44

Q: And the “relative probability (RP) of matching tetramer” value (MMP-2)?
A: 20.44

Q: And the “relative probability (RP) (acc.to MMP9)” value (MMP-9; [3])?
A: 12.85

Q: What does the source list for PMDIHA?
A: relative probability (RP) (MMP-2; [8]): 8.254; relative probability (RP) (MMP-9; [9]): 39.7367

Q: What does the source list for PSNMEG?
A: relative probability (RP) (MMP-2; [8]): 32.3748; relative probability (RP) (MMP-9; [9]): 45.3884

Q: For HFFK, which “relative probability (RP) (acc.to MMP2)” value (MMP-2; [6]) is on record?
A: 0.14

Q: And the “relative probability (RP) (acc.to MMP9)” value (MMP-9; [7])?
A: 0.27

Q: What does the source list for HARL?
A: MMP2 relative probability (RP) (MMP-2): 17.6482; Relative probability (RP) rank (MMP-2; [12]): 2341; relative probability (RP) (MMP-2; [12]): 17.65; corresponding MMP9 relative probability (RP) (MMP-9): 0.3259

Q: For PREL, which “relative probability (RP) (acc.to MMP2)” value (MMP-2; [2]) is on record?
A: 31.95

Q: And the “relative probability (RP)” value (MMP-9; [4])?
A: 44.67

Q: And the “relative probability (RP) (acc.to MMP9)” value (MMP-9; [5])?
A: 44.67

Q: With PLNV as the substance, how does the avg_RP (MMP-2; average relative probability of the P3-P1' tetramer, redundant tetramers have been averaged out) read?
A: 24.9266

Q: What about the “relative probability (RP) (acc.to MMP2)” value (MMP-2; [1]) of the same substance?
A: 24.93

Q: What about the “relative probability (RP) of matching tetramer” value (MMP-2) of the same substance?
A: 24.93

Q: What about the “relative probability (RP) (acc.to MMP2)” value (MMP-2; [2]) of the same substance?
A: 24.93

Q: What about the “relative probability (RP) (acc.to MMP9)” value (MMP-9; [3]) of the same substance?
A: 43.38

Q: And the “relative probability (RP)” value (MMP-9; [4])?
A: 43.38

Q: And the “relative probability (RP) (acc.to MMP9)” value (MMP-9; [5])?
A: 43.38

Q: How did the “relative probability (RP)” value (MMP-2; [8]) turn out when HPVSMV was run?
A: 30.0644

Q: What about the “relative probability (RP)” value (MMP-9; [9]) of the same substance?
A: 41.2029

Q: Which “relative probability (RP) of matching tetramer” value (MMP-2) does the source give for GSAL here?
A: 9.27

Q: What about the “relative probability (RP) (acc.to MMP2)” value (MMP-2; [10]) of the same substance?
A: 9.27

Q: What about the “normalized RP - MMP2” value (MMP-2; unique part of MMP2 selectome) of the same substance?
A: 0.2538

Q: What about the “relative probability (RP) (acc.to MMP9)” value (MMP-9; [11]) of the same substance?
A: 2.8

Q: And the “normalized RP - MMP9” value (MMP-9; unique part of MMP2 selectome)?
A: 0.05346

Q: With NRGF as the substance, how does the “relative probability (RP) of matching tetramer” value (MMP-2) read?
A: 6.81

Q: And the “relative probability (RP) (acc.to MMP2)” value (MMP-2; [10])?
A: 6.81

Q: And the “normalized RP - MMP2” value (MMP-2; unique part of MMP2 selectome)?
A: 0.1865

Q: What about the “relative probability (RP) (acc.to MMP9)” value (MMP-9; [11]) of the same substance?
A: 0

Q: What about the “normalized RP - MMP9” value (MMP-9; unique part of MMP2 selectome) of the same substance?
A: 0

Q: Which “relative probability (RP) (acc.to MMP2)” value (MMP-2; [6]) does the source give for GLSL here?
A: 0.18

Q: And the “relative probability (RP) (acc.to MMP9)” value (MMP-9; [7])?
A: 4.42

Q: For TAPSSQ, which “relative probability (RP)” value (MMP-2; [8]) is on record?
A: 25.0042

Q: What about the “relative probability (RP)” value (MMP-9; [9]) of the same substance?
A: 27.1142

Q: Which results are given for KSPLRQ?
A: relative probability (RP) (MMP-2; [8]): 11.8624; relative probability (RP) (MMP-9; [9]): 29.0862
